Data on 16 compounds can be found in PubChem BioAssay (NCI).

Experiment in all cases: growth of human tumour cells (NCI), 48 h
Assay [1] has as its system U251 CNS.
For assay [2], the system named is HS 578T breast.
The subject of assay [3] is NCI-H460 lung.
Assay [4] concerns K-562 leukemia.
In assay [5] the test system is M14 melanoma.
The test system of assay [6] is MDA-MB-435.
The test system of assay [7] is 786-0 renal.
Assay [8] relates to LOX IMVI melanoma.
The subject of assay [9] is UACC-62 melanoma.
Assay [10] relates to PC-3 prostate.

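Grown in 96-well plates, cells were treated for 48 hours with each compound at five concentrations. Insufficient inhibition: endpoint recorded as highest concentration tested. The concentration for 50% growth inhibition is given as GI50. TGI is the concentration that stops growth completely.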

As for `O=C(CC1(O)C(=O)N(Cc2ccccc2)c2ccccc21)c1ccc(C(=O)NCC2CCC3(CC2)OOC2(CCCCC2)OO3)cc1` (configuration not stated), the GI50 was 0.774 µM in [1]; 2.76 µM in assay [2]; 1.29 µM in assay [3]; 1.72 µM in assay [4]; 2.48 µM in assay [5]; 0.875 µM in assay [6]. Moreover, the GI50 in assay [7] is 0.18 µM; in assay [8], 0.154 µM; in [9] it was 2.2 µM; in assay [10] it was 1.58 µM. The TGI in assay [1] was 2.17 µM; in assay [2], 7.81 µM; in [3], 3.51 µM; in [4], 4.83 µM; in [5] it was 7.26 µM; in [6], 2.45 µM. Moreover, the TGI amounted to 0.345 µM in [7], 0.31 µM in assay [8], 5.44 µM in assay [9] and 4.91 µM in [10].

`Cc1cccc2c3c(sc12)C(c1ccc(Cl)cc1)C(C#N)=C(N)O3` (configuration not stated): the GI50 is 0.408 µM in [1]; 0.274 µM in [2]; 0.37 µM in [3]; 0.285 µM in [4]; 0.326 µM in assay [5]; 0.182 µM in assay [6]. The GI50 in [7] was 0.643 µM; in assay [8] it was 0.663 µM; in assay [9] it was 0.327 µM; in assay [10], 0.395 µM. Also, the TGI in [1] worked out at 11 µM; in [2], 1.48 µM; in assay [3], 3.92 µM; in assay [4], 14.2 µM; in assay [5] it was 12.8 µM; in assay [6], 0.42 µM. The TGI in [7] is 13.3 µM; in assay [8], 3.92 µM; in [9] it was 11.3 µM; in assay [10], 12.8 µM.

Regarding `CCN(CC)CCCCCCNc1cc(OC)cc2cccnc12`, the GI50 in assay [1] is 2.38 µM; in [2], 12.3 µM; in assay [3], 2 µM; in assay [4], 1.74 µM; in assay [5], 1.93 µM; in assay [6], 1.84 µM. For the same compound, the GI50 in assay [7] was 2.11 µM; in assay [8], 1.74 µM; in [9], 2.29 µM; in assay [10], 2.06 µM. Moreover, the TGI in assay [1] came to 5.2 µM; in assay [2], 42.3 µM; in [3], 3.79 µM; in assay [4], 3.58 µM; in assay [5] it was 3.74 µM; in assay [6], 3.63 µM. Besides, the TGI in assay [7] is 4.32 µM; in assay [8], 3.31 µM; in assay [9] it was 5.16 µM; in [10], 4.1 µM.

On to `COC1=C(OC)C(=O)C(SC/C=C(\C)CCCC(C)CCCC(C)CCCC(C)C)=CC1=O` (configuration not stated), for which the GI50 in assay [1] was 0.479 µM; in assay [2], 0.709 µM; in assay [3], 0.95 µM; in assay [4], 0.678 µM; in assay [5] it was 0.743 µM; in assay [6] it was 0.845 µM. The GI50 in [7] is 11.2 µM; in assay [8] it was 0.488 µM; in assay [9] it was 0.797 µM; in assay [10] it was 0.255 µM. The TGI in [1] was over 100 µM; in [2], over 48.4 µM; in assay [3], over 32.7 µM; in assay [4] it was over 100 µM; in assay [5], over 100 µM; in assay [6] it was over 38.7 µM. Besides, the TGI in [7], in assay [8], in assay [9] and in assay [10] was over 100 µM throughout.

Take `N#CC1=C(/N=C/c2ccccc2)Oc2c(ccc3ccccc23)C1c1ccccc1` (configuration not stated): the GI50 in assay [1] was 0.527 µM; in assay [2], 0.377 µM; in [3] it was 0.386 µM; in [4] it was 0.358 µM; in assay [5] it was 0.484 µM; in assay [6], 0.227 µM. For the same compound, the GI50 in [7] was 0.546 µM; in assay [8], 0.559 µM; in assay [9], 0.653 µM; in assay [10], 0.477 µM. The TGI in assay [1] is over 100 µM; in [2], over 100 µM; in assay [3], over 39.3 µM; in [4] it was over 100 µM; in assay [5], over 100 µM; in [6] it was 0.573 µM. Besides, the TGI in assay [7], in assay [8], in assay [9] and in [10] was over 100 µM each time.

Turning to `COc1cc(/C=C/C(=O)c2cccc(-n3cc(-c4ccc(Cl)cc4)[nH]c3=O)c2)cc(OC)c1OC`, the GI50 in [1] is 2.12 µM; in assay [2], 5.96 µM; in [3], 3.74 µM; in assay [4], 3.69 µM; in assay [5] it was 4.36 µM; in assay [6], 3.63 µM. The GI50 in [7] is 2.14 µM; in assay [8], 1.72 µM; in [9] it was 8.88 µM; in assay [10] it was 16.5 µM. The TGI is 4.62 µM in [1]; over 100 µM in assay [2]; 11.8 µM in assay [3]; over 100 µM in assay [4]; 18.3 µM in assay [5]; over 100 µM in assay [6]. The TGI is 5.39 µM in assay [7], 3.2 µM in [8], 21.4 µM in assay [9] and over 100 µM in [10].

For `c1ccc2c(c1)Nc1ccncc1S2`, the GI50 in [1] was 27.2 µM; in [2], 11.4 µM; in assay [3], 18.2 µM; in assay [4], 29.4 µM; in [5], 32.4 µM; in assay [6], 23.2 µM. In addition, the GI50 in assay [7] was 28.8 µM; in [8], 23.8 µM; in assay [9], 16.5 µM; in [10], 27 µM. Besides, the TGI is over 100 µM in assay [1]; 48.4 µM in assay [2]; 49.7 µM in [3]; over 100 µM in assay [4]; over 100 µM in [5]; over 100 µM in assay [6]. The TGI in [7] is over 100 µM; in [8], over 100 µM; in assay [9], 56.9 µM; in [10] it was over 100 µM.

`COC1C(N)C(OC2C(Oc3cccc4c(O)c5c(=O)oc6ccc(C)c7c(=O)oc(c34)c5c67)OC(C)C(O)C2(C)O)OC(C)C1O` (configuration not stated): the TGI in assay [1] came out at 0.789 µM; in [2], 0.886 µM; in assay [3], 0.139 µM; in assay [4], 1.56 µM; in assay [5], 0.75 µM; in assay [6], 0.219 µM. Further, the TGI in [7] was 0.36 µM; in assay [8] it was 0.28 µM; in [9], 0.147 µM; in assay [10], 1.18 µM.

On to `Cc1ccc(/C(C#N)=C/c2cccc([N+](=O)[O-])c2)cc1`, for which the TGI is over 100 µM in [1]; 65 µM in assay [2]; over 100 µM in assay [3]; over 100 µM in [4]; over 100 µM in assay [5]; over 100 µM in [6]. In addition, the TGI in [7], in assay [8], in assay [9] and in assay [10] was over 100 µM each time.

With `CCC1(O)C(=O)OCc2c1cc1n(c2=O)Cc2cc3c(NC(=O)CN)cccc3nc2-1` (configuration not stated), the GI50 in assay [1] is 0.16 µM; in [2] it was 28.9 µM; in assay [3], 0.122 µM; in [4], 1.07 µM; in [5], 0.532 µM; in assay [6] it was 5.4 µM. For the same compound, the GI50 in assay [7] was 0.194 µM; in assay [8], 0.146 µM; in [9], 0.0927 µM; in [10], 2.72 µM. For the same compound, the TGI in [1] is 12.1 µM; in assay [2], over 100 µM; in [3] it was 3.88 µM; in assay [4], over 100 µM; in assay [5], 8.73 µM; in assay [6], over 70 µM. In addition, the TGI is 2.48 µM in assay [7], 4.08 µM in assay [8], 0.852 µM in assay [9] and over 100 µM in assay [10].

With `CCc1cccc(C)c1NC(=O)c1sc2nc3c(cc2c1N)C(=O)CCC3`, the GI50 in assay [1] was 0.659 µM; in assay [2], 2.57 µM; in [3], 0.371 µM; in assay [4] it was 0.422 µM; in assay [5], 0.43 µM; in assay [6], 0.159 µM. The GI50 in assay [7] is 0.734 µM; in assay [8], 0.742 µM; in assay [9] it was 0.556 µM; in assay [10] it was 0.454 µM. In addition, the TGI in assay [1] was over 100 µM; in assay [2], over 100 µM; in assay [3], 14 µM; in assay [4], 22.4 µM; in [5], 25.8 µM; in assay [7], over 100 µM. The TGI in assay [8], in assay [9] and in [10] was over 100 µM in each case.

Consider `O=C(/C=C/c1cccc(O)c1)c1cccc(-n2cc(-c3ccccc3)[nH]c2=O)c1`, for which the GI50 in [1] was 1.56 µM; in assay [2], 5.7 µM; in [3] it was 2.84 µM; in assay [4] it was 2.52 µM; in [5], 2.89 µM; in [6], 2.53 µM. In addition, the GI50 in assay [7] is 2.36 µM; in assay [8] it was 1.81 µM; in [9], 2.82 µM; in [10], 2.82 µM. Further, the TGI in assay [1] was 3.05 µM; in [2], 44.6 µM; in [3], 7.4 µM; in assay [4], over 24.8 µM; in assay [6], 9.64 µM; in assay [8], 3.44 µM. Moreover, the values for the TGI in assay [9] and in assay [10] were 9.54 µM and 11.1 µM, respectively.

As for `COC(=O)c1cc2c(cc1Cl)SC1=NN(C)C(N(C)C)N1S2(=O)=O` (configuration not stated), the GI50 in [1], in [2], in assay [3], in assay [4], in assay [5] and in assay [6] was over 100 µM in each case. The GI50 in [7], in assay [8], in assay [9] and in assay [10] was over 100 µM throughout. Further, the TGI in [1], in assay [2], in assay [3], in assay [4], in [5] and in [6] was over 100 µM throughout. Further, the TGI in assay [7], in assay [8], in [9] and in assay [10] was over 100 µM each time.

Take `O=[N+]([O-])c1ccc(N2CCOCC2)c2c1no[n+]2[O-]`: the GI50 in assay [1] is 0.984 µM; in [2], 1.15 µM; in [3], 0.601 µM; in assay [4] it was 1.65 µM; in [5] it was 1.11 µM; in assay [6], 2.15 µM. The GI50 in assay [7] was 2.12 µM; in assay [8] it was 0.675 µM; in [9], 1.21 µM; in assay [10], 1.25 µM. Further, the TGI in assay [1] came out at 2.32 µM; in assay [2], 4.17 µM; in [3], 2.07 µM; in [4] it was 3.57 µM; in assay [5], 3.81 µM; in [6], 7.35 µM. Besides, the TGI in assay [7] came to 6 µM; in assay [8], 2.13 µM; in [9] it was 3.87 µM; in assay [10] it was 5.53 µM.

Consider `Cc1cc[n+]2c(c1)-c1cc(C)cc[n+]1CC2`, for which the TGI in [1], in assay [2], in assay [3], in assay [4], in assay [5] and in assay [6] was over 100 µM throughout. Further, the TGI in assay [7], in assay [8], in assay [9] and in assay [10] was over 100 µM each time.

Consider `CSc1nc2sc3c(c2c(=O)n1-c1ccc(C(C)C)cc1)CCC(=O)C3`, for which the GI50 is 1.7 µM in assay [1]; 2.96 µM in [2]; 2.27 µM in assay [3]; 3.02 µM in [4]; 2.82 µM in assay [5]; 1.85 µM in assay [6]. Moreover, the GI50 in assay [7] is 3.06 µM; in [8] it was 1.77 µM; in [9] it was 1.81 µM; in assay [10], 1.6 µM. For the same compound, the TGI was found to be 3.07 µM in assay [1]; 9.64 µM in [2]; 5.1 µM in [3]; 9.04 µM in [4]; 7.6 µM in assay [5]; 3.71 µM in assay [6]. Further, the TGI amounted to 9.79 µM in assay [7], 3.27 µM in [8], 3.49 µM in [9] and 3.21 µM in assay [10].
